Structures can show the parent of a compound that is named as a salt. Activity calls are given as the source filed them.
Legend:
[1] = biological target: Beta-galactosidase (Escherichia coli, UniProt Q8VNN2); format: functional
[2] = biological target: Serine/threonine-protein phosphatase PP1-alpha catalytic subunit (Homo sapiens, UniProt P62136); test: inhibition of protein phosphatase 1 activity – biochemical, fluorescence, dose response (AID 2403);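 also: phosphatase turnover of OMFP into fluorescent 3-O-methylfluorescein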
[3] = NIH-3T3 fibroblast cytotoxicity, dose response, cytotoxicity control, cell-based, fluorescence, Alamar Blue, secondary assay (AID 2327); format: functional;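 also: NIH-3T3 mouse fibroblasts cultured with fluconazole at 8 µg/mL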
[4] = biological target: T1, Mannose-6-phosphate isomerase (Homo sapiens, UniProt P34949); test: MPI inhibition at elevated mannose 6-phosphate – biochemical, fluorescence intensity, high mannose 6-phosphate, primary screen (AID 1220)
T1 sequence (P34949 whole entry): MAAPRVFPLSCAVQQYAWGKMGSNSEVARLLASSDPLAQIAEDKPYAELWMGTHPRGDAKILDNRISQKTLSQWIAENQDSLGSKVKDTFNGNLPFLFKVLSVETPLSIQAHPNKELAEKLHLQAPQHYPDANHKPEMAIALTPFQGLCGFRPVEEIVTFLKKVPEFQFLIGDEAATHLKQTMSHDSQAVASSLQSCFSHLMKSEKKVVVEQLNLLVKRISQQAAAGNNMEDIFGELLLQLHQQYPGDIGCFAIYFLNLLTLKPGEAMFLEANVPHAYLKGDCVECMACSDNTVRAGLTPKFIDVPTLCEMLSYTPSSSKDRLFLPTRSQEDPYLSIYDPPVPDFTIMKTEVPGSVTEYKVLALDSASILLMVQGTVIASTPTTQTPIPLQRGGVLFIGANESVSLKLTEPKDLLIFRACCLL

[5] = biological target: Estrogen receptor beta (Homo sapiens, UniProt Q92731); test: blockers of SRC-3 recruitment to ERβ – biochemical, ELISA, streptavidin-HRP readout, orthogonal assay, confirmation (AID 1060)
[6] = fluconazole-exposed Candida albicans growth modulators – fluorescence, retest, confirmation (AID 2467); format: functional, cell-based
[7] = viability loss of HPDE-C7K cells – cell-based, fluorescence, HTS, primary screen (AID 431); format: functional; settings: Homo sapiens
[8] = biological target: Serine/threonine-protein phosphatase (Homo sapiens, UniProt Q9BPW0); test: Counterscreen for inhibitors of PP1: fluorescence-based biochemical high throughput dose response assay to identify inhibitors of Protein Phosphatase 5 (PP5). [Related pubchem assays: 2034 (Summary (PP5 inhibitors)), 1987 (PP5 inhibitors in singlate), 2235 (PP1 inhibitors in singlate)]
[9] = HPDE-C7 pancreatic duct cell viability loss – fluorescence, HTS (AID 430); format: functional, cell-based; settings: Homo sapiens
[10] = biological target: T2, Heat shock factor protein 1 (Mus musculus, UniProt P38532); test: enhancement of HSF1-driven luciferase signal – cell-based, NIH3T3, luminescence, dose retest, confirmation (AID 435004); format: functional;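 also: stress induced by proteasome inhibitor MG132 added 30 min after compound; luciferase reporter driven by HSF1 response element in NIH3T3 cells; actives raise luminescence as potentiators of the MG132 stress response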
T2 sequence (P38532 whole entry): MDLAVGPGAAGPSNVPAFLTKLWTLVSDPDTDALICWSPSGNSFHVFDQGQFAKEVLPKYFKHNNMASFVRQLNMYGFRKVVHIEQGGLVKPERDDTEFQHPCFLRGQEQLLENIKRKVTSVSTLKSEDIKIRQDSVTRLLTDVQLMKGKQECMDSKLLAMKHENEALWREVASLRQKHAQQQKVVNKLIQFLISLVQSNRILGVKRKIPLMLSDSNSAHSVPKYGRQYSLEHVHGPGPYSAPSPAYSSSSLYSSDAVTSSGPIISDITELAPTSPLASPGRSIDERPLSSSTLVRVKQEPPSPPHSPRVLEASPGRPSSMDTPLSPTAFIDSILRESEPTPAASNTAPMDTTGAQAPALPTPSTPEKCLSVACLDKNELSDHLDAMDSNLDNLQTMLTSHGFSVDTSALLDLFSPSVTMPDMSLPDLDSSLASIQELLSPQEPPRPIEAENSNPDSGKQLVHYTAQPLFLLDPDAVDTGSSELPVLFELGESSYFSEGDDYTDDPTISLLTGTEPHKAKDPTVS

[11] = biological target: Heat shock cognate 71 kDa protein (Homo sapiens, UniProt P11142); test: In Vitro Hsc70 Dose Response Fluorescence Polarization Assay. [Related pubchem assays: 1072 ]
[12] = biological target: T3, Dual specificity protein phosphatase 6 (Rattus norvegicus, UniProt Q64346); format: functional
T3 sequence (Q64346 whole entry): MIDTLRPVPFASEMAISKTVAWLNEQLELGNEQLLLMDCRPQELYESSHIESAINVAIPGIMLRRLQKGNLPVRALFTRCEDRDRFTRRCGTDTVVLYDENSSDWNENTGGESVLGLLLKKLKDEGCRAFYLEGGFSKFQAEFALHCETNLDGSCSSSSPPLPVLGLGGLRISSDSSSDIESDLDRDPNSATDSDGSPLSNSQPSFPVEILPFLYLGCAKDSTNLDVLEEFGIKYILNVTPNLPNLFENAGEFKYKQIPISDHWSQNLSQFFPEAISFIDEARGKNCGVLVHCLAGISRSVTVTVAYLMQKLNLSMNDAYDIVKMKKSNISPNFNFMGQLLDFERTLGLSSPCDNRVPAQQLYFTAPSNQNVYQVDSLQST

[13] = biological target: T3, Dual specificity protein phosphatase 6
[14] = biological target: Heat shock 70 kDa protein 1A (Homo sapiens, UniProt P0DMV8); test: inhibition of Hsp70 binding activity – biochemical, fluorescence polarization, SAR follow-up (AID 1072)
[15] = biological target: Glyceraldehyde-3-phosphate dehydrogenase (Homo sapiens, UniProt P04406)
[16] = biological target: T4, Tyrosine-protein phosphatase non-receptor type 7 (Homo sapiens, UniProt P35236); format: functional
T4 sequence (P35236 whole entry): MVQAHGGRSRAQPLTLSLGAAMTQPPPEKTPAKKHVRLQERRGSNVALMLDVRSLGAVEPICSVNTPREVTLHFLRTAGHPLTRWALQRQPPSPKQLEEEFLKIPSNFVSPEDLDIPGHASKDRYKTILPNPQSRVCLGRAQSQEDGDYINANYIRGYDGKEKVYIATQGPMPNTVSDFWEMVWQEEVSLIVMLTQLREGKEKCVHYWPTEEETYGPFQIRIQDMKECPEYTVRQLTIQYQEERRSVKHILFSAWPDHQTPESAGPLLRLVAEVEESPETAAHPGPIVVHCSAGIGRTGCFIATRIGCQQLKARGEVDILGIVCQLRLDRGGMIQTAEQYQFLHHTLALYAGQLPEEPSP

[17] = biological target: G2/mitotic-specific cyclin-B1 (Homo sapiens, UniProt P14635); test: HeLa cell cycle G2/M accumulation – FACS, mechanism study for Wee1 degradation inhibitor project, late-stage follow-up, panel member Cyclin B Degradation (AID 2088)
[18] = biological target: Wee1-like protein kinase (Homo sapiens, UniProt P30291); test: HeLa cell cycle G2/M accumulation – FACS, mechanism study for Wee1 degradation inhibitor project, late-stage follow-up, panel member Wee1 Degradation (AID 2088)
[19] = biological target: Eukaryotic translation initiation factor 4E (Mus musculus, UniProt P63073); test: blockers of eIF4G binding by eIF4E – biochemical, TR-FRET, dose response (AID 855); format: functional;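 also: potency for disrupting eIF4E binding to eIF4GI seen as loss of FRET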
[20] = HEK-293T cell viability reduction – luminescence, B-cell screen hits, cytotoxicity control for BCR NF-kB inhibitor project, dose response (AID 489021); format: functional, cell-based;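 also: HEK-293T cells carrying an NF-kB luciferase reporter; cells exposed to compound for about 14 hours before viability readout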

Chain of Estrogen receptor beta (Q92731 whole entry): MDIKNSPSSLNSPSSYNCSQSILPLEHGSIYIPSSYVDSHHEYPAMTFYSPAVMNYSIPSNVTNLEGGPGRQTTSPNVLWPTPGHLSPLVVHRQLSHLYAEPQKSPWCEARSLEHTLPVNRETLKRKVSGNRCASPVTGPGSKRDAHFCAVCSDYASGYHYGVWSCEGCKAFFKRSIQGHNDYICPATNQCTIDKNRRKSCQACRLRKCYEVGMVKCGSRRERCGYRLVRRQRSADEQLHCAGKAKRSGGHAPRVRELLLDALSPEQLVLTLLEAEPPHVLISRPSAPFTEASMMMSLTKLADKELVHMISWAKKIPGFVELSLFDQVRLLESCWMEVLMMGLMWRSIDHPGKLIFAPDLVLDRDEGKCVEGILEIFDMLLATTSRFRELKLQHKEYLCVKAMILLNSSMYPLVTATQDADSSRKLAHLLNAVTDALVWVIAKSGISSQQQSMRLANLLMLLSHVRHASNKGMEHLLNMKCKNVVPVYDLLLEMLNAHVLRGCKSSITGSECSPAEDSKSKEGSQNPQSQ
Chain of Heat shock cognate 71 kDa protein (P11142 whole entry): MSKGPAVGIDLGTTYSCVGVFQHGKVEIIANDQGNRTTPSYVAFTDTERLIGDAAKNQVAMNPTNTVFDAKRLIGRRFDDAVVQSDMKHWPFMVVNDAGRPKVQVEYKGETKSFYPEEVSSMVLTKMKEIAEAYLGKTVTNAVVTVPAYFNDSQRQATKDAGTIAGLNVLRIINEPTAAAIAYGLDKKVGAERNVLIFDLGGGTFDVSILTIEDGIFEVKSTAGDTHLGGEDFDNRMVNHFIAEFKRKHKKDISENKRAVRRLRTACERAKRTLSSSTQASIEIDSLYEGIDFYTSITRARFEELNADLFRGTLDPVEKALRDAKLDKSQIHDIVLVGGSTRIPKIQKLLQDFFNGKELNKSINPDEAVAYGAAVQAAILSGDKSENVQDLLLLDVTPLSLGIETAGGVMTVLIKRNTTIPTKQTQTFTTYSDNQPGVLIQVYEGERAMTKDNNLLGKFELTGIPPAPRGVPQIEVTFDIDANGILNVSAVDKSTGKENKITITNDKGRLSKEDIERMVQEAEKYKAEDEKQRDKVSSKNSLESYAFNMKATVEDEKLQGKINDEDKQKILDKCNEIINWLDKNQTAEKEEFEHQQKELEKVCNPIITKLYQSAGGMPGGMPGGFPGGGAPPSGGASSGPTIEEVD
Chain of Eukaryotic translation initiation factor 4E (P63073 whole entry): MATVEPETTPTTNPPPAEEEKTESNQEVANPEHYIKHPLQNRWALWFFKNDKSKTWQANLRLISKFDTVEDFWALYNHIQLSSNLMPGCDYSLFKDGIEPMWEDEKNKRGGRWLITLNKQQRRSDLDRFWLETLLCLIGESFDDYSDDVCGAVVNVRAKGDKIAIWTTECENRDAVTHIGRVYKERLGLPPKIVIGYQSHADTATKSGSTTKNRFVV
Chain of Glyceraldehyde-3-phosphate dehydrogenase (P04406 whole entry): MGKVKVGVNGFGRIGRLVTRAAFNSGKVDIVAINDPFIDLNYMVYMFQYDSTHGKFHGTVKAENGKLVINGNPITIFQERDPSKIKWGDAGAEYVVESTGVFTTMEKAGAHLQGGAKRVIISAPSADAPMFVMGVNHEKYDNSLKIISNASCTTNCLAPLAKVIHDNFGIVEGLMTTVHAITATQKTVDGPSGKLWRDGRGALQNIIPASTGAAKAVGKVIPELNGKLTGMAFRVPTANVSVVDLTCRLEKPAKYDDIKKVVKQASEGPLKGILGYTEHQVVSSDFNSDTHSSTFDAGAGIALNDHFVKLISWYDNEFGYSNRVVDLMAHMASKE
Chain of Heat shock 70 kDa protein 1A (P0DMV8 whole entry): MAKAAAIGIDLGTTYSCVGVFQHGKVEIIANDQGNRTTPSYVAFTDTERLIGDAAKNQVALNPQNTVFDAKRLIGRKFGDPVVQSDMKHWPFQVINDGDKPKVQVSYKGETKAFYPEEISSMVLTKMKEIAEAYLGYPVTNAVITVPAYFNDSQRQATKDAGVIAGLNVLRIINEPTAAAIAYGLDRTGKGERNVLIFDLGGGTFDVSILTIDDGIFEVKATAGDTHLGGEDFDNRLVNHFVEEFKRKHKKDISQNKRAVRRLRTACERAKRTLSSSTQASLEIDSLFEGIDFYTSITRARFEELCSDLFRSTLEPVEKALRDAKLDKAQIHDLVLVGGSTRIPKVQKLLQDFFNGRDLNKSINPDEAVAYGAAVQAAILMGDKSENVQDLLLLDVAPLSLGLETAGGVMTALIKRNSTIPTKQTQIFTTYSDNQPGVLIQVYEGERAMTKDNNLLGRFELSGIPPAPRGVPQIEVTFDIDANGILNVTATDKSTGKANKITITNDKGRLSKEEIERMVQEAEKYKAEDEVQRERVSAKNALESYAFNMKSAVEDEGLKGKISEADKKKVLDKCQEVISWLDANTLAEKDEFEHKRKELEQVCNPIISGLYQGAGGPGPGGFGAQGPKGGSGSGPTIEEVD
Chain of Wee1-like protein kinase (P30291 whole entry): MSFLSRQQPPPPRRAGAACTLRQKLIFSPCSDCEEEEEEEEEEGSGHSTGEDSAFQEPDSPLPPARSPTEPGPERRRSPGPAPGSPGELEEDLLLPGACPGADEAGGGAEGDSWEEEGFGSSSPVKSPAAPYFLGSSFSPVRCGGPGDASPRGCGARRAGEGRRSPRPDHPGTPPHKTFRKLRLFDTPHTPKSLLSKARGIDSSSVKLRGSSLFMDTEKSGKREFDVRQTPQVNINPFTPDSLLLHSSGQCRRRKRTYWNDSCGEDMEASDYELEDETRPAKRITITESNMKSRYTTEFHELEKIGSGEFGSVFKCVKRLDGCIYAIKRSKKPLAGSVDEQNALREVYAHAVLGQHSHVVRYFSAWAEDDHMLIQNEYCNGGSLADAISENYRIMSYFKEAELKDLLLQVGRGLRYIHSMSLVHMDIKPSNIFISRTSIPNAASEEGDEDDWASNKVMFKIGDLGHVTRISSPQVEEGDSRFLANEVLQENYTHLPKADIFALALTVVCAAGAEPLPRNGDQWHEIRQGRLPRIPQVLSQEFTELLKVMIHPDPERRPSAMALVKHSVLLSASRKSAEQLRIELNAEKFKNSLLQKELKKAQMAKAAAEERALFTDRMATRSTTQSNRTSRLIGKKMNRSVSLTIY
Chain of Serine/threonine-protein phosphatase (Q9BPW0 whole entry): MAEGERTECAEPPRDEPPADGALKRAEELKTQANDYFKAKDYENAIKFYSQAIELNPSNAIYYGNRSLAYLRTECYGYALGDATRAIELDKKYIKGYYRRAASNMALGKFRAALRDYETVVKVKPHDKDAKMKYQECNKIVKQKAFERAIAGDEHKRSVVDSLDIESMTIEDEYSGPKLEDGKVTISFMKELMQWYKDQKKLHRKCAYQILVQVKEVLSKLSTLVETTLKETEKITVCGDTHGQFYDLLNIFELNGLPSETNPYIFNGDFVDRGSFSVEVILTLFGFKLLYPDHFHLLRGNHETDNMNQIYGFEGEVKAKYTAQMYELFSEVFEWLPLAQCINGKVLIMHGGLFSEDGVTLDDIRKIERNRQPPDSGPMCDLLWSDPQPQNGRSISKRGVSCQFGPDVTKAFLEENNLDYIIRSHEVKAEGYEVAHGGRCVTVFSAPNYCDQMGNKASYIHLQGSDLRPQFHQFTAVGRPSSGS
Chain of Serine/threonine-protein phosphatase PP1-alpha catalytic subunit (P62136 whole entry): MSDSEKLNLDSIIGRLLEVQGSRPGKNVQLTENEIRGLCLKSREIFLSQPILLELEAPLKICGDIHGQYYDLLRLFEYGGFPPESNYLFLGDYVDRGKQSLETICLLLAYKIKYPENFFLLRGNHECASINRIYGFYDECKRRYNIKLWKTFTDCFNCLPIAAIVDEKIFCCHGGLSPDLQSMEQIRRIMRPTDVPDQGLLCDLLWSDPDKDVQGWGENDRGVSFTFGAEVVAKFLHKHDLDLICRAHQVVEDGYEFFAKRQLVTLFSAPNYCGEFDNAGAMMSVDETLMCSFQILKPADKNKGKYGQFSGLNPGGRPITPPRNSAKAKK
Chain of G2/mitotic-specific cyclin-B1 (P14635 whole entry): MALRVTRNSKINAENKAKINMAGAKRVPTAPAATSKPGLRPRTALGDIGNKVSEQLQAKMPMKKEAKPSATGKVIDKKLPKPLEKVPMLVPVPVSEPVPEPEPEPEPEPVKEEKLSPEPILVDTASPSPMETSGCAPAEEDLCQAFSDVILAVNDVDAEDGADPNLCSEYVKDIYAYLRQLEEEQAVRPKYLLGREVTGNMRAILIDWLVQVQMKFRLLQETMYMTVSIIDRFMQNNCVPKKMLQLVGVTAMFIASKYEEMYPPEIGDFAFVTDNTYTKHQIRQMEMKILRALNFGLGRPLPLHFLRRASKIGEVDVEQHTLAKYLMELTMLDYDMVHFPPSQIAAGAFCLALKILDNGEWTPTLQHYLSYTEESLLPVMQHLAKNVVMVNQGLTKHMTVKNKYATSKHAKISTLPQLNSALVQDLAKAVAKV

For `C=CCN1CC[C@]23c4c5ccc(O)c4O[C@H]2C(=O)CC[C@@]3(O)[C@H]1C5` [NALOXONE HYDROCHLORIDE], the EC50 [1] was > 31.5 µM (inactive).
With `Oc1c(C(c2ccccn2)N2CCOCC2)ccc2cccnc12` (stereo not given) the IC50 [2] was 2.36 µM (active), the EC50 [3] was > 150 µM (inactive) and the IC50 [4] was > 50 µM (not active). The IC50 [5] was > 50 µM (not active), the EC50 [6] was > 38 µM (not active) and the EC50 [7] was > 20 µM (not active). For the same molecule, the IC50 [8] was > 67 µM (not active), the EC50 [9] was > 20 µM (not active) and the EC50 [10] was 74.8 µM (active).
For `O=C(O)c1ccc([N+](=O)[O-])c2c1NC(C(=O)O)C1CC=CC21` (stereo not given), the IC50 [11] was > 100 µM (not active), the IC50 [12] was > 100 µM (inactive) and the IC50 [13] was > 100 µM (inactive). The IC50 [14] was 90.6 µM (active), the IC50 [15] was > 100 µM (not active) and the IC50 [16] was 92.9 µM (active).
With `Cc1cc(Br)ccc1NC(=O)CCCOc1cc(=O)n(C)c2ccccc12` the EC50 [17] was > 49.7 µM (inactive) and the EC50 [18] was > 49.7 µM (inactive).
With `O=C(/C=N/O)Nc1ccc(F)cc1` the IC50 [19] was > 64 µM (inactive).
For `O=C(CSCCO)Nc1ccc(C23C[C@H]4C[C@@H](C2)C[C@@H](C3)C4)cc1`, the IC50 [20] was > 80 µM (inactive).

— ChEMBL document CHEMBL1201862, “PubChem BioAssay data set” (2004)
